From patent publication US11629171B2, “Beta-hairpin peptidomimetics” (POLYPHOR AG, priority 2017, dated 2023)
≈ marks a conversion by molar mass, not a printed value. Where a SMILES comes first, the peptide text is derived from it. Bridges are numbered along the chain shown (N, C = ends). Roman numbers before positions name the chains, in order. [ ]: non-standard residue; d: D form. The star is where a group is joined. Tle = CC(C)(C)[C@H](N)C(=O)O; Hiv = CC(C)[C@H](O)C(=O)O; dDab = NCC[C@@H](N)C(=O)O; hSer = N[C@@H](CCO)C(=O)O; NHCH(CH2OH)2 = OCC(CO)N*; Orn = NCCC[C@H](N)C(=O)O; Dab = NCC[C@H](N)C(=O)O; Dap = NC[C@H](N)C(=O)O

Legend:
Type in all cases: cell-based
[1] = tested on: Acinetobacter baumannii 872842; settings: 872842
Procedure: (§1) The in vitro antimicrobial activities of the peptides were determined in 96-well plates (Greiner, polystyrene) by the standard CLSI broth microdilution method (Clinical and Laboratory Standards Institute 2014. Performance standards for antimicrobial susceptibility testing, 24th informational supplement. Approved standard CLSI M100-S24; Clinical and Laboratory Standards Institute, Wayne, Pa.). The following microorganisms were used to determine antibiotic activity of the peptides: Escherichia coli ATCC 25922, Klebsiella pneumoniae SSI #3010^a), Acinetobacter baumannii DSM 30008, Pseudomonas aeruginosa ATCC 27853 and the clinical isolates Escherichia coli 926415^b), Klebsiella pneumoniae 968733^b), Acinetobacter baumannii 872842^b), Enterobacter cloacae 848840^b) and Escherichia coli MCR-1 Af45^c). Before preparation of inocula, Escherichia coli MCR-1 Af45 was subcultured on Mueller-Hinton II (MH-cation adjusted) agar containing 2 μg/mL colistin. ^a) Obtained from Statens Serum Institut (SSI), Copenhagen, Denmark^b) Obtained from International Health Management Associates, Inc. (IHMA Europe Sàrl), Epalinges, Switzerland^c) Obtained from Prof. Patrice Nordmann, University of Fribourg, Fribourg, Switzerland
(§2) Inocula of the microorganisms were diluted into Mueller-Hinton II (MH-cation adjusted) broth and compared with a 0.5 McFarland standard to give appr. 10^6 colony forming units (CFU)/mL. Aliquots (90 μL) of inoculum were added to 10 μL of MH-II broth+P-80 (Polysorbate 80, 0.002% final concentration, v/v) containing the peptide in serial two-fold dilutions. Antimicrobial activities of the peptides were expressed as the minimal inhibitory concentration (MIC) in μg/mL at which no visible growth was observed after 18-20 hours of incubation at 35° C.

[2] = tested on: Acinetobacter baumannii DSM 30008; settings: DSM 30008
Procedure: as §1, §2

Escherichia coli 926415 = settings: 926415
Procedure: as §1, §2

[3] = tested on: Escherichia coli ATCC 25922; settings: ATCC 25922
Procedure: as §1, §2

[4] = tested on: Klebsiella pneumoniae 968733; settings: 968733
Procedure: as §1, §2

[5] = tested on: Klebsiella pneumoniae SSI #3010; settings: SSI #3010
Procedure: as §1, §2

[6] = tested on: Pseudomonas aeruginosa ATCC 27853; settings: ATCC 27853
Procedure: as §1, §2

[7] = tested on: human red blood cells (hRBC); assay: Hemolysis; settings: red cells of human, 1 h, 200
Procedure: The peptides were tested for their hemolytic activity against human red blood cells (hRBC). Fresh hRBC were washed four times with phosphate buffered saline (PBS) and centrifuged for 10 min at 3000×g. Compounds (200 μg/mL) were incubated with 20% hRBC (v/v) for 1 h at 37° C. and shaking at 300 rpm. A value of 0% and 100% cell lysis, respectively, was determined by incubation of hRBC in the presence of PBS containing 10% water and 2% Triton X-100 in H2O, respectively. The samples were centrifuged, the supernatants were ˜7.5-fold diluted in PBS buffer and the optical densities (OD) were measured at 540 nm and blank corrected. The 100% lysis value (OD540Triton X-100) gave an OD540 of approximately 0.5-1.0.
Percent hemolysis was calculated as follows: (OD540peptide/OD540Triton X-100)×100%.

| SMILES | MIC [1] [µg/mL] | MIC [2] [µg/mL] | MIC (Escherichia coli 926415) [µg/mL] | MIC [3] [µg/mL] | MIC [4] [µg/mL] | MIC [5] [µg/mL] | MIC [6] [µg/mL] | Hemolysis at 200 μg/mL [7] [%] |
| --- | --- | --- | --- | --- | --- | --- | --- | --- |
| CC(=O)N[C@H](C(=O)N[C@H]1CSSC[C@@H](C(=O)N[C@H](C(N)=O)C(C)C)NC(=O)[C@H](Cc2ccc(O)cc2)NC(=O)[C@H](CO)NC(=O)[C@H](Cc2c[nH]c3ccccc23)NC(=O)[C@H](CCO)NC(=O)[C@@H](CCN)NC(=O)[C@H](CCC(=O)N[C@@H](CCN)C(=O)N[C@H](C(=O)N[C@@H](CCN)C(=O)N[C@H]2CCNC(=O)[C@H]([C@@H](C)O)NC(=O)[C@H](CCN)NC(=O)[C@H](CCN)NC(=O)[C@H](CC(C)C)NC(=O)[C@@H](CC(C)C)NC(=O)[C@H](CCN)NC2=O)[C@@H](C)O)NC(=O)[C@H](CCN)NC(=O)[C@H](CO)NC1=O)C(C)C [Ex. 68] (I: Ac-VCS[Dab]E[dDab][hSer]WSYCV-NH2 / II: [Dab]T[Dab][Dab][Dab][dL]L[Dab][Dab]T; disulfide I:2-I:11; amide I:5-II:N; lactam II:4-II:C) | 8 (≈ 3.3 µM) | 0.25 (≈ 0.103 µM) | 2 (≈ 0.824 µM) | 0.25 (≈ 0.103 µM) | 1 (≈ 0.412 µM) | 0.125 (≈ 0.0515 µM) | 0.5 (≈ 0.206 µM) | <1 |
| CC(C)C[C@@H]1NC(=O)[C@@H](CC(C)C)NC(=O)[C@H](CCN)NC(=O)[C@@H](NC(=O)[C@H](CCN)NC(=O)[C@@H](NC(=O)[C@H](CCN)NC(=O)CC[C@@H]2NC(=O)[C@H](CCN)NC(=O)[C@H](C(C)C)NC(=O)[C@@H](NC(=O)[C@@H](O)C(C)C)CSSC[C@@H](C(=O)NC(CO)CO)NC(=O)[C@H](Cc3ccc(O)cc3)NC(=O)[C@H](CO)NC(=O)[C@H](Cc3c[nH]c4ccccc34)NC(=O)[C@H](CCO)NC(=O)[C@@H](CCN)NC2=O)[C@@H](C)O)CCNC(=O)[C@H]([C@@H](C)O)NC(=O)[C@H](CCN)NC(=O)[C@H](CCN)NC1=O [Ex. 97] (I: H-[Hiv]CV[Dab]E[dDab][hSer]WSYC-{NHCH(CH2OH)2} / II: [Dab]T[Dab][Dab][Dab][dL]L[Dab][Dab]T; disulfide I:2-I:11; amide I:5-II:N; lactam II:4-II:C) | 2 (≈ 0.843 µM) | 0.25 (≈ 0.105 µM) | 2 (≈ 0.843 µM) | 0.25 (≈ 0.105 µM) | 8 (≈ 3.37 µM) | 0.125 (≈ 0.0527 µM) | 0.25 (≈ 0.105 µM) | <1 |
| CC(C)C[C@@H]1NC(=O)[C@@H](CC(C)C)NC(=O)[C@H](CCN)NC(=O)[C@@H](NC(=O)[C@H](CN)NC(=O)[C@@H](NC(=O)[C@H](CCN)NC(=O)CC[C@@H]2NC(=O)[C@H](CCCN)NC(=O)[C@H](CCN)NC(=O)[C@H](Cc3ccc(O)cc3)NC(=O)[C@@H](NC(=O)[C@@H](O)C(C)C)CSSC[C@@H](C(=O)NC(CO)CO)NC(=O)[C@H](C(C)(C)C)NC(=O)[C@H](CO)NC(=O)[C@H](Cc3c[nH]c4ccccc34)NC(=O)[C@H]([C@@H](C)O)NC2=O)[C@@H](C)O)CCNC(=O)[C@H]([C@@H](C)O)NC(=O)[C@H](CCN)NC(=O)[C@H](CCN)NC1=O [Ex. 162] (I: H-[Hiv]CY[Dab][Orn]ETWS[Tle]C-{NHCH(CH2OH)2} / II: [Dab]T[Dap][Dab][Dab][dL]L[Dab][Dab]T; disulfide I:2-I:11; amide I:6-II:N; lactam II:4-II:C) | 0.5 (≈ 0.209 µM) | 0.25 (≈ 0.105 µM) | 1 (≈ 0.419 µM) | 0.125 (≈ 0.0524 µM) | 8 (≈ 3.35 µM) | 0.5 (≈ 0.209 µM) | 0.25 (≈ 0.105 µM) | <1 |
| CC(C)C[C@@H]1NC(=O)[C@H](CCN)NC(=O)[C@H](CCN)NC(=O)[C@H](CC(C)C)NC(=O)[C@@H](CC(C)C)NC(=O)[C@H](CCN)NC(=O)[C@@H](NC(=O)[C@@H](CCN)NC(=O)CC[C@@H]2NC(=O)[C@H](CCCN)NC(=O)[C@H](CCN)NC(=O)[C@H](Cc3ccc(O)cc3)NC(=O)[C@@H](NC(=O)[C@@H](O)C(C)C)CSSC[C@@H](C(=O)N[C@H](C(N)=O)[C@@H](C)O)NC(=O)[C@H](C(C)(C)C)NC(=O)[C@H](CO)NC(=O)[C@H](Cc3c[nH]c4ccccc34)NC(=O)[C@H]([C@@H](C)O)NC2=O)CCNC1=O [Ex. 164] (I: H-[Hiv]CY[Dab][Orn]ETWS[Tle]CT-NH2 / II: [dDab][Dab][Dab][dL]L[Dab][Dab]L; disulfide I:2-I:11; amide I:6-II:N; lactam II:2-II:C) | 2 (≈ 0.893 µM) | 0.5 (≈ 0.223 µM) | 0.25 (≈ 0.112 µM) | 0.5 (≈ 0.223 µM) | 1 (≈ 0.447 µM) | 0.5 (≈ 0.223 µM) | 1 (≈ 0.447 µM) | <1 |
| CC(=O)N[C@@H](CCN)C(=O)N[C@H](C(=O)N[C@H](C(=O)N[C@@H](Cc1ccc(O)cc1)C(=O)N[C@H]1CSSC[C@@H](C(=O)N[C@H](C(=O)N[C@@H](CCN)C(N)=O)C(C)(C)C)NC(=O)[C@H](Cc2c[nH]c3ccccc23)NC(=O)[C@H](CO)NC(=O)[C@@H](CCN)NC(=O)[C@H](CCC(=O)N[C@@H](CCN)C(=O)N[C@H](C(=O)N[C@@H](CN)C(=O)N[C@H]2CCNC(=O)[C@H]([C@@H](C)O)NC(=O)[C@H](CCN)NC(=O)[C@H](CCN)NC(=O)[C@H](CC(C)C)NC(=O)[C@@H](CC(C)C)NC(=O)[C@H](CCN)NC2=O)[C@@H](C)O)NC1=O)[C@@H](C)O)C(C)C [Ex. 218] (I: Ac-[Dab]VTYCE[dDab]SWC[Tle][Dab]-NH2 / II: [Dab]T[Dap][Dab][Dab][dL]L[Dab][Dab]T; disulfide I:5-I:10; amide I:6-II:N; lactam II:4-II:C) | – | 0.125 (≈ 0.0512 µM) | – | 0.125 (≈ 0.0512 µM) | – | 0.125 (≈ 0.0512 µM) | 0.125 (≈ 0.0512 µM) | <1 |
| CC(=O)N[C@H](C(=O)N[C@@H](CCN)C(=O)N[C@@H](Cc1ccc(O)cc1)C(=O)N[C@@H](CN)C(=O)N[C@@H](CCC(=O)N[C@@H](CCN)C(=O)N[C@H](C(=O)N[C@@H](CN)C(=O)N[C@H]1CCNC(=O)[C@H]([C@@H](C)O)NC(=O)[C@H](CCN)NC(=O)[C@H](CCN)NC(=O)[C@H](CC(C)C)NC(=O)[C@@H](CC(C)C)NC(=O)[C@H](CCN)NC1=O)[C@@H](C)O)C(=O)N[C@H](CCN)C(=O)N[C@@H](CO)C(=O)N[C@@H](Cc1c[nH]c2ccccc12)C(=O)N[C@@H](CO)C(=O)N[C@H](C(=O)N[C@@H](CCC(=O)O)C(=O)N[C@@H](CO)C(N)=O)C(C)(C)C)C(C)C [Ex. 229] (I: Ac-V[Dab]Y[Dap]E[dDab]SWS[Tle]ES-NH2 / II: [Dab]T[Dap][Dab][Dab][dL]L[Dab][Dab]T; amide I:5-II:N; lactam II:4-II:C) | – | 0.5 (≈ 0.206 µM) | – | 0.125 (≈ 0.0516 µM) | – | 0.125 (≈ 0.0516 µM) | 0.5 (≈ 0.206 µM) | 2 |
| CC(=O)N[C@H](C(=O)N[C@H](C(=O)N[C@@H](Cc1ccc(O)cc1)C(=O)N[C@@H](CCN)C(=O)N[C@@H](CCC(=O)N[C@@H](CCN)C(=O)N[C@H](C(=O)N[C@@H](CN)C(=O)N[C@H]1CCNC(=O)[C@H]([C@@H](C)O)NC(=O)[C@H](CCN)NC(=O)[C@H](CCN)NC(=O)[C@H](CC(C)C)NC(=O)[C@@H](CC(C)C)NC(=O)[C@H](CCN)NC1=O)[C@@H](C)O)C(=O)N[C@H](CCN)C(=O)N[C@H](C(=O)N[C@@H](Cc1c[nH]c2ccccc12)C(=O)N[C@@H](CCC(=O)O)C(=O)N[C@H](C(=O)N[C@@H](C)C(=O)N[C@@H](CO)C(N)=O)C(C)(C)C)[C@@H](C)O)[C@@H](C)O)C(C)C [Ex. 230] (I: Ac-VTY[Dab]E[dDab]TWE[Tle]AS-NH2 / II: [Dab]T[Dap][Dab][Dab][dL]L[Dab][Dab]T; amide I:5-II:N; lactam II:4-II:C) | – | 1 (≈ 0.41 µM) | – | 0.25 (≈ 0.103 µM) | – | 0.5 (≈ 0.205 µM) | 1 (≈ 0.41 µM) | <1 |
